According to EP1210336B1, “SUBSTITUTED BENZIMIDAZOLES AS NON-NUCLEOSIDE INHIBITORS OF REVERSE TRANSCRIPTASE” (THE UNITED STATES OF AMERICA, as represented by the …, priority 1999, dated 2001):
Several values for one entry are separate records, joined by “and”; a condition that tells them apart may be missing. Equal entries are not always repeated. Where two headings read alike, the source gives them in different places.

Assays:
HIV-1 WT RT = biological target: T1, HIV-1 WT RT (Human immunodeficiency virus type 1 group M subtype B, UniProt P03366); test: biochemical; conditions: for IC50: read-out: IC50
T1 construct: purified RT protein (0.015 mg/mL) was incubated in a 100 µL reaction mixture

WT virus (NL4-3) = test: microbe, parasite or virus in culture; format: cell-based, HIV-1; conditions: read-out: EC50
How it was run: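 CEM-SS cells (5 x 10^3/well) infected with HIV-1 at an MOI giving complete killing by day 6 (e.g., 0.01-0.05), with serial half-log compound dilutions in triplicate. After 6 days at 37°C, viability read by XTT reduction at 450 nm. CIC50 derived from protection against cytopathic killing.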

NL4-3 (WT) = test: Cytopathic cell killing assay, cross-resistance profile, infected MT-4 cells; format: cell-based, HIV-1
How it was run: (§1)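 MT-4 cells, 5 x 10^3 per well, were infected with pre-titered HIV-1 (wild-type NL4-3 or RT-mutant isolates) at an MOI giving complete killing by day 6 (e.g., 0.01-0.05). Compounds were added as serial half-log dilutions in triplicate. After 6 days at 37°C, viability was read by XTT reduction at 450 nm.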

[1] = test system: HIV-1 isolate 4xAZT/Y181C; test: as above; format: cell-based; conditions: isolate 4XAZT /Y181C
How it was run: as §1

HIV-1 isolate 4xAZT = test: as above; format: cell-based; conditions: isolate 4XAZT
How it was run: as §1

HIV-1 variant A98G = test: as above; format: cell-based; conditions: isolate A9SG
How it was run: as §1

HIV-1 variant K101E = test: as above; format: cell-based; conditions: isolate K101E
How it was run: as §1

HIV-1 variant K103N = test: as above; format: cell-based; conditions: for EC50: isolate K103N
How it was run: as §1

HIV-1 variant L100I = test: as above; format: cell-based
How it was run: as §1

HIV-1 variant L74V = test: as above; format: cell-based; conditions: isolate 1.74V
How it was run: as §1

HIV-1 variant M184l = test: as above; format: cell-based
How it was run: as §1

HIV-1 variant V106A = test: as above; format: cell-based; conditions: isolate V 106A
How it was run: as §1

HIV-1 variant V108I = test: as above; format: cell-based
How it was run: as §1

HIV-1 variant V179D = test: as above; format: cell-based; conditions: isolate V179D
How it was run: as §1

HIV-1 variant Y188C = test: as above; format: cell-based
How it was run: as §1

HIV-1 variant Y188H = test: as above; format: cell-based
How it was run: as §1

[2] = test system: HIV-1 isolate 4xAZT/L100I; test: as above; format: cell-based; conditions: isolate 4XA7T L 1001
Description: The various HIV isolates tested in the Figures are those corresponding to wild-type virus (NL4-3) and the other strains listed by their RT mutations. The three 4xAZT isolates included in the Figures represent AZT drug-resistant variants. […]
Briefly, in this method cells (e.g., the CEM-SS cell line, available from the NIAID AIDS Research and Reference Program [ARRRP]) were seeded at a density of 5 x 10^3 cells/well, into the wells of a 96-well microtiter plate. The cells were then infected with HIV virus (either mutant or WT), at a multiplicity of infection (MOI) previously determined to provide complete cell killing by 6 days of culture post-infection (e.g., MOI of 0.01-0.05). Each of the HIV isolates was pre-titered to induce equivalent levels of infection based on cell killing or virus production, prior to their use in these assays. A range of test compound concentrations was added to the wells in triplicate (e.g., serial half-log dilutions) to evaluate inhibition of HIV infection. Controls for each assay included drug controls (drug colorimetric control wells), drug cytotoxicity control wells (cells with drug), virus control wells (cells with virus), and cell viability controls (cells only). Positive control drugs (e.g., AZT and ddC) were also run in parallel.
After six days of incubation at 37°C, cell viability was determined spectrophotometrically at 450 nm for each well, using the metabolic reduction of XTT to a soluble colored formazan. (See, Gartner and Popovic, "Virus Isolation and Production, in Aldovini and Walker (eds.), Techniques in HIV Research, Stockton Press, NY, pp. […] [1991]; and Nara and Fischinger, "Quantitative Infectivity Assay for HIV-1 and HIV-2," Nature 332:469-470 [1988]).
The in vitro therapeutic index (TI50) was defined as the fold-difference between the EC50 and IC50.

HIV-1 variant Y181C = test: as above; format: cell-based; conditions: Human immunodeficiency virus 1, MT4, Table 10 (values in µM); isolate Y181C
How it was run: as §1

[3] = Table 7, WT HIV-1 RT, 1 µM drug, read-out: %inhibn (1µM)
[4] = Human immunodeficiency virus 1, NL43, CEM-SS, Table 7, concentration reducing cell killing or virus production by 50%, HIV-1 WT
[5] = Human immunodeficiency virus 1, NL43, CEM-SS, Table 11, CEMSS/NL4-3, NRVC = reduction in viral CPE not seen (footnote)
[6] = Human immunodeficiency virus 1, NL43, MT4, Table 8, isolate N1.43
[7] = Human immunodeficiency virus 1, NL43, MT4, Table 10 (values in µM), isolate NL4-3 (WT)
[8] = Human immunodeficiency virus 1, MT4, Table 8
[9] = Human immunodeficiency virus 1, MT4, Table 10 (values in µM)
[10] = Human immunodeficiency virus 1, MT4, Table 8, isolate 1.1001
[11] = Human immunodeficiency virus 1, MT4, Table 10 (values in µM), isolate L1001
[12] = Human immunodeficiency virus 1, MT4
[13] = Human immunodeficiency virus 1, MT4, Table 8, isolate V1081
[14] = Human immunodeficiency virus 1, MT4, Table 10 (values in µM), isolate V108l
[15] = Human immunodeficiency virus 1, MT4, Table 8, isolate Y 188C

Molecule | IC50 (HIV-1 WT RT; HIV-1 WT RT) | IC50 (HIV-1 WT RT; Table 7, HIV-1 WT RT) | IC50 (HIV-1 WT RT; Table 11, WT RT) | inhibition at 1 µM (HIV-1 WT RT; [3]) | EC50 (WT virus (NL4-3); [4]) | EC50 (WT virus (NL4-3); [5]) | EC50 (NL4-3 (WT); [6]) | EC50 (NL4-3 (WT); [7]) | EC50 (HIV-1 isolate 4xAZT; [8]) | EC50 (HIV-1 variant A98G; [8]) | EC50 (HIV-1 variant K101E; [8]) | EC50 (HIV-1 variant K101E; [9]) | EC50 (HIV-1 variant K103N; [8]) | EC50 (HIV-1 variant K103N; [9]) | EC50 (HIV-1 variant L100I; [10]) | EC50 (HIV-1 variant L100I; [11]) | EC50 (HIV-1 variant L74V; [8]) | EC50 (HIV-1 variant M184l; [12]) | EC50 (HIV-1 variant V108I; [14]) | EC50 (HIV-1 variant Y181C) | also measured
4-amino-1-(2,6-difluorobenzyl)-2-(2,6-difluorophenyl)benzimidazole [compound 53] | 280 nM | 280 nM | 280 nM |  |  |  |  |  |  |  |  |  |  |  |  |  |  |  |  |  | %inhibn (1µM) (HIV-1 WT RT; Table 7, WT HIV-1 RT, 1 µM drug): 69%; EC50 (WT virus (NL4-3); Table 7, concentration reducing cell killing or virus production by 50%, HIV-1 WT): 460 nM; EC50 (WT virus (NL4-3); Table 11, CEMSS/NL4-3, NRVC = reduction in viral CPE not seen (footnote)): 460 nM; EC50 (NL4-3 (WT); Table 8, isolate N1.43, read-out: EC50): 0.5 µM; EC50 (NL4-3 (WT); Table 10 (values in µM), isolate NL4-3 (WT), listed as NH2, read-out: EC50): 0.68 µM and 0.4 µM; EC50 ([1]; Table 8, read-out: EC50): > 10000 nM; EC50 (HIV-1 isolate 4xAZT; Table 8, read-out: EC50): 200 nM; EC50 (HIV-1 variant A98G; Table 8, read-out: EC50): 1500 nM; EC50 (HIV-1 variant K101E; Table 8, read-out: EC50): > 20 µM; EC50 (HIV-1 variant K103N; Table 8, read-out: EC50): > 20 µM; EC50 (HIV-1 variant L100I; Table 8, isolate 1.1001, read-out: EC50): 1.3 µM; EC50 (HIV-1 variant L74V; Table 8, read-out: EC50): 300 nM; EC50 (HIV-1 variant M184l; Table 10 (values in µM), isolate M184l, read-out: EC50): 0.65 µM; EC50 (HIV-1 variant V106A; Table 8, read-out: EC50): > 20000 nM; EC50 (HIV-1 variant V108I; Table 8, isolate V1081, read-out: EC50): > 20 µM; EC50 (HIV-1 variant V179D; Table 8, read-out: EC50): 6000 nM; EC50 (HIV-1 variant Y188C; Table 8, isolate Y 188C, read-out: EC50): 2.7 µM; EC50 (HIV-1 variant Y188C; Table 10 (values in µM), isolate Y188C, read-out: EC50): 2 µM; EC50 (HIV-1 variant Y188H; Table 10 (values in µM), isolate Y188H, read-out: EC50): > 50 µM; EC50 ([2]; Table 8, read-out: EC50): 300 nM
COc1cccc2c1nc(-c1c(F)cccc1F)n2Cc1c(F)cccc1F [compound 44, 1-(2,6-difluorobenzyl)-2-(2,6-difluorophenyl)-4-methoxylbenzimidazole] | 7.3 nM | 7.3 nM | 7.3 nM | 85% | 4.6 nM | 60 nM | 0.06 µM | 0.165 µM | 6000 nM | 300 nM | 3.3 µM | 2.82 µM | > 20 µM | > 50 µM | 0.1 µM | 0.16 µM | 80 nM | 0.16 µM | 2.82 µM | 0.26 µM | IC50 (HIV-1 WT RT; WT RT): 7.3 nM; EC50 (WT virus (NL4-3); Human immunodeficiency virus 1, NL43, CEM-SS, cytopathic cell killing assay, HIV-1 WT): 4.6 nM; activity against the K103N mutation / isolate (HIV-1 variant K103N; result in words, cytopathic cell killing assay): failed to show any activity; EC50 (HIV-1 variant V106A; [8]): 1400 nM; EC50 (HIV-1 variant V108I; [13]): 2.5 µM; EC50 (HIV-1 variant V179D; [8]): 200 nM; EC50 (HIV-1 variant Y188C; [15]): 0.3 µM; EC50 (HIV-1 variant Y188H; [12]): 0.26 µM
O=[N+]([O-])c1cccc2c1nc(-c1c(F)cccc1F)n2Cc1c(F)cccc1F [compound 48, 1-(2,6-difluorobenzyl)-2-(2,6-difluorophenyl)-4-nitrobenzimidazole] |  | 1880 nM |  | 51% | 2400 nM |  |  | 3.13 µM |  |  |  | > 50 µM |  | > 50 µM |  | 0.83 µM |  | 3.69 µM | > 50 µM | > 50 µM | EC50 (HIV-1 variant Y188H; [12]): > 50 µM
Fc1cccc(F)c1Cn1c(-c2c(F)cccc2F)nc2c(Cl)cccc21 [compound 55, 4-chloro-1-(2,6-difluorobenzyl)-2-(2,6-difluorophenyl)benzimidazole] |  | 2630 nM | 2630 nM | 75% | 440 nM | 440 nM | 0.1 µM | 0.5 µM | 200 nM | 5000 nM | > 20 µM | > 20 µM | > 20 µM | 10.2 µM | 0.2 µM | 0.3 µM | 500 nM |  | 3.2 µM | 8.4 µM | inhibition at 1 µM (HIV-1 WT RT; Table 6, WT HIV-1 RT, 1 µM drug, average of two experiments done in triplicates, read-out: %Inhibn (1µM)): 75%; EC50 [1, 8]: > 20000 nM; EC50 (HIV-1 variant V106A; [8]): > 10000 nM; EC50 (HIV-1 variant V108I; [13]): 3.6 µM; EC50 (HIV-1 variant V179D; [8]): 800 nM; EC50 (HIV-1 variant Y188C; [15]): 5.4 µM; EC50 (HIV-1 variant Y188C; Human immunodeficiency virus 1, MT4, Table 10 (values in µM), isolate Y188C): 3.4 µM; EC50 [2, 8]: 200 nM
